Measurements taken from patent US6518243B1, “Desleucyl glycopeptide antibiotics and methods of making same” (Trustees of Princeton University, priority 1999, dated 2003).

Assays:
[1] = test system: E. faecalis (CL 4877); experiment: Zone of inhibition screen, 96 well agar array format; type: cell-based; set-up: scale not given here
In short: (§1)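 Read-out is antibacterial activity on agar laid out as a 96-well array; every compound went through all strains of the panel.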

[2] = test system: S. aureus (ATCC 29213); experiment: as above; type: cell-based; set-up: scale not given here
In short: as §1

[3] = zone of inhibition relative to 1 mg/ml stock solution of p-chlorobiphenylvancomycin
[4] = zone of inhibition relative to 1 mg/ml p-chlorobiphenylvancomycin

Row | Structure (SMILES) | zone score, E. faecalis CL 4877 [1, 3] | zone score, S. aureus ATCC 29213 [2, 3] | zone score, E. faecalis CL 4877 [1, 4] | zone score, S. aureus ATCC 29213 [2, 4]
1 | CC(=O)Nc1ccc(C(=O)NC2C(=O)NC(CC(N)=O)C(=O)NC3C(=O)NC4C(=O)NC(C(=O)NC(C(=O)O)c5cc(O)cc(O)c5-c5cc4ccc5O)C(O)c4ccc(c(Cl)c4)Oc4cc3cc(c4OC3OC(CO)C(O)C(O)C3OC3CC(C)(NCc4ccc(-c5ccc(Cl)cc5)cc4)C(O)C(C)O3)Oc3ccc(cc3Cl)C2O)cc1NC(C)=O (stereo not drawn) [Compound 104] | 2 | 2 | – | –
2 | CC1OC(OC2C(Oc3c4cc5cc3Oc3ccc(cc3Cl)C(O)C3NC(=O)C(NC(=O)C5NC(=O)C(CC(N)=O)NC(=O)C(NC(=O)COc5cc(Cl)c(Cl)cc5Cl)C(O)c5ccc(c(Cl)c5)O4)c4ccc(O)c(c4)-c4c(O)cc(O)cc4C(C(=O)O)NC3=O)OC(CO)C(O)C2O)CC(C)(NCc2ccc(-c3ccc(Cl)cc3)cc2)C1O (stereo not drawn) [Compound 233] | – | – | 2 | 2
3 | CC1OC(OC2C(Oc3c4cc5cc3Oc3ccc(cc3Cl)C(O)C3NC(=O)C(NC(=O)C5NC(=O)C(CC(N)=O)NC(=O)C(NC(=O)C(=O)NNC(=N)N)C(O)c5ccc(c(Cl)c5)O4)c4ccc(O)c(c4)-c4c(O)cc(O)cc4C(C(=O)O)NC3=O)OC(CO)C(O)C2O)CC(C)(NCc2ccc(-c3ccc(Cl)cc3)cc2)C1O (stereo not drawn) [Compound 199] | 2 | 2 | – | –
4 | CC1OC(OC2C(Oc3c4cc5cc3Oc3ccc(cc3Cl)C(O)C3NC(=O)C(NC(=O)C5NC(=O)C(CC(N)=O)NC(=O)C(NC(=O)C(N)CC(=O)OC(C)(C)C)C(O)c5ccc(c(Cl)c5)O4)c4ccc(O)c(c4)-c4c(O)cc(O)cc4C(C(=O)O)NC3=O)OC(CO)C(O)C2O)CC(C)(NCc2ccc(-c3ccc(Cl)cc3)cc2)C1O (stereo not drawn) [Compound 3] | 2 | 2 | – | –
5 | CC1OC(OC2C(Oc3c4cc5cc3Oc3ccc(cc3Cl)C(O)C3NC(=O)C(NC(=O)C5NC(=O)C(CC(N)=O)NC(=O)C(NC(=O)C(N)CCCNC(=N)N)C(O)c5ccc(c(Cl)c5)O4)c4ccc(O)c(c4)-c4c(O)cc(O)cc4C(C(=O)O)NC3=O)OC(CO)C(O)C2O)CC(C)(NCc2ccc(-c3ccc(Cl)cc3)cc2)C1O (stereo not drawn) [Compound 90] | 2 | 2 | – | –
6 | CC1OC(OC2C(Oc3c4cc5cc3Oc3ccc(cc3Cl)C(O)C3NC(=O)C(NC(=O)C5NC(=O)C(CC(N)=O)NC(=O)C(NC(=O)CNC(=O)CNC(=O)CNC(=O)OC(C)(C)C)C(O)c5ccc(c(Cl)c5)O4)c4ccc(O)c(c4)-c4c(O)cc(O)cc4C(C(=O)O)NC3=O)OC(CO)C(O)C2O)CC(C)(NCc2ccc(-c3ccc(Cl)cc3)cc2)C1O (stereo not drawn) [Compound 139] | 2 | 2 | – | –
7 | CC1OC(OC2C(Oc3c4cc5cc3Oc3ccc(cc3Cl)C(O)C3NC(=O)C(NC(=O)C5NC(=O)C(CC(N)=O)NC(=O)C(NC(=O)CNC(=O)CNC(=O)CNC(=O)OCc5ccccc5)C(O)c5ccc(c(Cl)c5)O4)c4ccc(O)c(c4)-c4c(O)cc(O)cc4C(C(=O)O)NC3=O)OC(CO)C(O)C2O)CC(C)(NCc2ccc(-c3ccc(Cl)cc3)cc2)C1O (stereo not drawn) [Compound 215] | – | – | 2 | 2
8 | CC1OC(OC2C(Oc3c4cc5cc3Oc3ccc(cc3Cl)C(O)C3NC(=O)C(NC(=O)C5NC(=O)C(CC(N)=O)NC(=O)C(NC(=O)CCNC(N)=O)C(O)c5ccc(c(Cl)c5)O4)c4ccc(O)c(c4)-c4c(O)cc(O)cc4C(C(=O)O)NC3=O)OC(CO)C(O)C2O)CC(C)(NCc2ccc(-c3ccc(Cl)cc3)cc2)C1O (stereo not drawn) [Compound 221] | – | – | 2 | 2
9 | Cc1cnc(C(=O)NC2C(=O)NC(CC(N)=O)C(=O)NC3C(=O)NC4C(=O)NC(C(=O)NC(C(=O)O)c5cc(O)cc(O)c5-c5cc4ccc5O)C(O)c4ccc(c(Cl)c4)Oc4cc3cc(c4OC3OC(CO)C(O)C(O)C3OC3CC(C)(NCc4ccc(-c5ccc(Cl)cc5)cc4)C(O)C(C)O3)Oc3ccc(cc3Cl)C2O)cn1 (stereo not drawn) [Compound 243] | – | – | 2 | 2
